The text below walks through data of patent US11110088B2, “Imidazopyrazine inhibitors of Bruton's tyrosine kinase” (Acerta Pharma B.V., priority 2015, dated 2021).

For one test, the target named is BTK (Homo sapiens (Human), UniProt Q06187). The experiment in a line: BTK enzyme activity, IMAP assay. Type of test: biochemical. The conditions noted are these: 60 min pre-incubation; 5 μM ATP. On the procedure: BTK enzyme activity is measured using the IMAP (immobilized metal ion affinity-based fluorescence polarization) assay as outlined below.
BTK, sequence (Q06187 whole entry): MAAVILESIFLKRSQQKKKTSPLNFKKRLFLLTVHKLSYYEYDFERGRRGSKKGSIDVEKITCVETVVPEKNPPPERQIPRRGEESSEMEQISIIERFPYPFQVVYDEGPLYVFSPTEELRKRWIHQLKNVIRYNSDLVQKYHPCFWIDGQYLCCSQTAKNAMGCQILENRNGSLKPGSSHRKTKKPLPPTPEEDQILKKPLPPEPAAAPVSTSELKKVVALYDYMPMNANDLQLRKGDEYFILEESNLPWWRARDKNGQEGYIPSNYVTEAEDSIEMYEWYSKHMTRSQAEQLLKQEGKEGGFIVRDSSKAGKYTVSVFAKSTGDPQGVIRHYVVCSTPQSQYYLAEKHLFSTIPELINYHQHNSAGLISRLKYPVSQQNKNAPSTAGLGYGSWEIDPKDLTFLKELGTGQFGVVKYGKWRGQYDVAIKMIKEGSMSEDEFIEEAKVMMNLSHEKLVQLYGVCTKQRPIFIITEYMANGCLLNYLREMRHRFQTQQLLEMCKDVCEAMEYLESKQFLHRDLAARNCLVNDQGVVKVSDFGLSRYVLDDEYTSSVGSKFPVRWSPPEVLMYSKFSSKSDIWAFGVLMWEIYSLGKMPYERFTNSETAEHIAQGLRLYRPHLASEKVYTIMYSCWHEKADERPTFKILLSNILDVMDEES
BTK enzyme (His-BTK (Millipore catalog #14-552)), is diluted to 0.4 U/mL in KR buffer (10 mM Tris-HCl, 10 mM MgCl2, 0.01% Tween-20, 0.05% NaN3, 1 mM DTT, 2 mM MnCl2, pH 7.2).
(§1) Serial dilutions log 10 from 2 mM to 63.2 nM of test compounds are made in 100% DMSO. The dilutions in DMSO are then diluted 50-fold in KR-buffer. Final compound concentration range in the assay ranged from 10 μM to 0.316 nM.
The assay is performed as follows: 5 μL/well of test compound in KR buffer (final DMSO concentration in the assay is 1%) is mixed with 5 µl/well of 0.4 U/mL BTK enzyme (final concentration in the assay is 0.1 U/mL). Test compounds and BTK enzyme are pre-incubated 60 minutes at room temperature, before adding 5 μL/well of 200 nM Fluorescin labeled substrate peptide (Blk/Lyntide substrate, e.g. #R7188/#R7233, Molecular Devices) in KR-buffer. Final peptide substrate concentration in assay is 50 nM. […] Following incubation for 2 hours at room temperature the enzyme reaction is stopped by adding 40 μL/well IMAP Progressive Binding Solution (according to suppliers (Molecular Devices) protocol using 75% 1× buffer A and 25% 1× buffer B with 1:600 Progressive Binding Solution). After 60 min incubation at room temperature in the dark the FP signal is read. Fluorescence at 535 nm is measured using parallel and perpendicular filters to determine differences in rotation due to binding of the phosphorylated substrate peptide to the beads. Values are calculated as percentage of the difference in readout (ΔmPi) of the controls with and without ATP. IC50 values are determined by curve fitting of the experimental results using Activity Base.

The target in a further test is EGFR WT (Homo sapiens (Human), UniProt P00533). In words: EGFR enzyme activity, IMAP assay. The conditions noted are these: 60 min pre-incubation; 2 μM ATP. Type of test: biochemical. The method, then: EGFR enzyme activity is measured using the IMAP (immobilized metal ion affinity-based fluorescence polarization) assay as outlined below.
EGFR WT, sequence (P00533 25-1210): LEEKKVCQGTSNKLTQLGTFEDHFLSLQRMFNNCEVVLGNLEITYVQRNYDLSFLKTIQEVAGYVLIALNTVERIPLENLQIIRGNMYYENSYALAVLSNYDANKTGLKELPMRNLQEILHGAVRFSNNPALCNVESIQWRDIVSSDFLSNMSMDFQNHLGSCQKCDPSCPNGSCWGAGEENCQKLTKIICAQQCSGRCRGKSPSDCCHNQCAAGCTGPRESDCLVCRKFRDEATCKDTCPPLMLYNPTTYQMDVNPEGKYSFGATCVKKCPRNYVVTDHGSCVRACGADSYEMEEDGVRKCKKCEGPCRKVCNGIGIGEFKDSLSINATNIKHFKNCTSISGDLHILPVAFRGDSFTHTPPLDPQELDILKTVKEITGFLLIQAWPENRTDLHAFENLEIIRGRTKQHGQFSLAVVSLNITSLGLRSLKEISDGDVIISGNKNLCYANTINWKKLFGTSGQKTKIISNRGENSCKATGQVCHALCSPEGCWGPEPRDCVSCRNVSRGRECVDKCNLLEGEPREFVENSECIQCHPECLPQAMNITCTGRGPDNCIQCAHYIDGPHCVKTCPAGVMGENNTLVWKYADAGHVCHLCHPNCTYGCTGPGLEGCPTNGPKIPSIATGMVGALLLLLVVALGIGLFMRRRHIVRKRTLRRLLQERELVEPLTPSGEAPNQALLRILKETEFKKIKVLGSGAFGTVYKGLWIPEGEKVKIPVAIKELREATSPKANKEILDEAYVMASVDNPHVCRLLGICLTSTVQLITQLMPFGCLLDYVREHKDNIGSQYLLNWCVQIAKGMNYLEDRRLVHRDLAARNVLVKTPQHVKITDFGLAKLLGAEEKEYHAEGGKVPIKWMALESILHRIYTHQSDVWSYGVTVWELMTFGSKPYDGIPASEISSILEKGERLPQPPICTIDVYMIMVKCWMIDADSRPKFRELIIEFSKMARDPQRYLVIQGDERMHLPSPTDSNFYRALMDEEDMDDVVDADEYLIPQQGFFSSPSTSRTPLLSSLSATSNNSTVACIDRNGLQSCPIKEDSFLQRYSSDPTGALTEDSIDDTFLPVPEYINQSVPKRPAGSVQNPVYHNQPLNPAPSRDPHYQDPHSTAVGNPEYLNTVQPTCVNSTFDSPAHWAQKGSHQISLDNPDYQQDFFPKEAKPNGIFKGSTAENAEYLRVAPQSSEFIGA
EGFR enzyme (Invitrogen catalog #PR7295B), is diluted to 2.5 μg/mL in KR buffer (10 mM Tris-HCl, 10 mM MgCl2, 0.01% Tween-20, 0.1% NaN3, 1 mM DTT, 2 mM MnCl2, pH 7.5).
Final peptide substrate concentration in assay is 50 nM. […] Following incubation for 60 min at room temperature in the dark the enzyme reaction is stopped by adding 40 μL/well IMAP Progressive Binding Solution (according to suppliers (Molecular Devices) protocol using 20% 1× buffer A and 80% 1× buffer B with 600× diluted beads). After 60 min incubation at room temperature in the dark the FP signal is read. […] Values are calculated as percentage of the difference in readout (ΔmPi) of the controls with and without ATP. IC50 values are determined by curve fitting of the experimental results using GraphPad Prism6.

A further test has as its target Txk (Homo sapiens (Human), UniProt P42681). The experiment in a line: TXK enzyme activity, IMAP assay. The conditions noted are these: 60 min pre-incubation; 1 μM ATP. Type of test: biochemical. On the procedure: TXK enzyme activity is measured using the IMAP (immobilized metal ion affinity-based fluorescence polarization) assay as outlined below.
TXK enzyme (Millipore #14-761), is diluted to 2.5 U/mL in KR buffer (10 mM Tris-HCl, 10 mM MgCl2, 0.01% Tween-20, 0.1% NaN3, 1 mM DTT, 2 mM MnCl2, pH 7.5).
as §1
The assay is performed as follows: 5 μL/well of test compound in KR buffer (final DMSO concentration in the assay is 1%) is mixed with 5 μL/well of 2.5 U/mL TXK enzyme (final concentration in the assay is 0.625 U/mL (4.4 nM)). Test compounds and TXK enzyme are pre-incubated 60 minutes at room temperature, before adding 5 μL/well of 200 nM Fluorescin labeled substrate peptide (Blk/Lyntide substrate #R7188, Molecular Devices) in KR-buffer. Final peptide substrate concentration in assay is 50 nM. […] Following incubation for 2 hours at room temperature the enzyme reaction is stopped by adding 40 μL/well IMAP Progressive Binding Solution (according to suppliers (Molecular Devices) protocol using 60% 1× buffer A and 40% 1× buffer B with 800× diluted beads (Progressive Binding System, Molecular Devices). After 60 min incubation at room temperature in the dark the FP signal is read. Fluorescence at 535 nm is measured using parallel and perpendicular filters to determine differences in rotation due to binding of the phosphorylated substrate peptide to the beads. Values are calculated as percentage of the difference in readout (ΔmPi) of the controls with and without ATP. IC50 values are determined by curve fitting of the experimental results using Activity Base.

Another test addresses ITK (Homo sapiens (Human), UniProt Q08881). In words: ITK enzyme activity, IMAP assay. It is filed as biochemical. The conditions noted are these: 60 min pre-incubation; 5 μM ATP. The method, then:
ITK enzyme activity is measured using the IMAP (immobilized metal ion affinity-based fluorescence polarization) assay as outlined below.
ITK enzyme (Millipore #14-660M) is diluted to 0.2 U/mL in KR buffer (10 mM Tris-HCl, 10 mM MgCl2, 0.01% Tween-20, 0.1% NaN3, 1 mM DTT, 2 mM MnCl2, pH 7.5)
(§2) The dilutions in DMSO are then diluted 50-fold in KR-buffer.
Test compounds and ITK enzyme are pre-incubated 60 minutes at room temperature, before adding 5 μL/well of 200 nM Fluorescin labeled substrate peptide (Blk/Lyntide substrate #R8124, Molecular Devices) in KR-buffer. Final peptide substrate concentration in assay is 50 nM. […] IC50 values are determined by curve fitting of the experimental results using Activity Base.

For the next test, the target named is Bmx (Homo sapiens (Human), UniProt P51813). The experiment in a line: BMX enzyme activity, IMAP assay. Type of test: biochemical. Particulars: 60 min pre-incubation; 5 μM ATP. The method, then:
BMX enzyme activity is measured using the IMAP (immobilized metal ion affinity-based fluorescence polarization) assay as outlined below.
as §2
Test compounds and BMX enzyme are pre-incubated 60 minutes at room temperature, before adding 5 μL/well of 200 nM Fluorescin labeled substrate peptide (Blk/Lyntide substrate #R7188, Molecular Devices) in KR-buffer. Final peptide substrate concentration in assay is 50 nM. […] IC50 values are determined by curve fitting of the experimental results using Activity Base.

The test system of test [1] is CD69 in CD19+ B cells of anti-IgM stimulated PBMCs. In words: Human peripheral blood mononuclear cell (PBMC) CD69 assay. Type of test: cell-based. The conditions noted are these: Homo sapiens, PBMC, 2 h compound, then anti-IgM 18 hours. The method, then:
Example 44—Human Peripheral Blood Mononuclear Cell (PBMC) CD69 Assay
Whole blood was collected in heparin-coated Vacutainer tubes (BD Biosciences, San Jose, Calif.) and used for isolation of PBMCs using Ficoll-Hypaque (Pharmacia, Uppsala, Sweden). Isolated PBMCs were cryopreserved in 90% FCS/10% DMSO until later use.
Cells from cryogenic storage were thawed in a 37° C. water bath, diluted with RPMI/1% FCS, washed 2 times, and then plated at 1×10^5 cells per well in RPMI/10% FCS.
Serial dilutions log 10 from 10 mM to 316 nM of test compounds are made in 100% DMSO, followed by a 100-fold dilution into RPMI/1% FCS. For each well, 10 μL was then transferred to the deep well plate containing 90 μL of PBMC cells. Final compound concentration range in the assay ranged from 10 μM to 0.316 nM, with a final DMSO concentration of 0.1%. PBMCs are then incubated for 2 h at 37° C. in presence or absence of test compounds, prior to stimulation with goat F(ab′)2 anti-IgM (Southern Biotech, #2022-14, final concentration in assay 5 μg/mL) for 18 hours.
Following stimulation with anti-IgM, PBMCs were incubated on ice for 30 min with anti-CD69-FITC, anti-CD19-BV421 (BD Biosciences #555530 and #562440, respectively) and 7AAD (Life Technologies #A1310). Flow cytometry was performed and fluorescence values were obtained from the CD69-FITC channel in CD19+ gated life B cells. ECso values are determined by curve fitting of the experimental results using GraphPad Prism.

The next test addresses ErbB2 (Homo sapiens (Human), UniProt P04626). The experiment in a line: ErbB2 Z-LYTE assay (Life Technologies). It is filed as biochemical. The conditions noted are these: Z-LYTE assay performed at Life Technologies.
The target of the next test is ErbB4 (Homo sapiens (Human), UniProt Q15303). The experiment in a line: ErbB4 Z-LYTE assay (Life Technologies). Type of test: biochemical. The conditions noted are these: Z-LYTE assay performed at Life Technologies.
The target in the next test is Blk (Homo sapiens (Human), UniProt P51451). The experiment in a line: Blk Z-LYTE assay (Life Technologies). Particulars: Z-LYTE assay performed at Life Technologies. It is filed as biochemical.
Blk, sequence (P51451 whole entry): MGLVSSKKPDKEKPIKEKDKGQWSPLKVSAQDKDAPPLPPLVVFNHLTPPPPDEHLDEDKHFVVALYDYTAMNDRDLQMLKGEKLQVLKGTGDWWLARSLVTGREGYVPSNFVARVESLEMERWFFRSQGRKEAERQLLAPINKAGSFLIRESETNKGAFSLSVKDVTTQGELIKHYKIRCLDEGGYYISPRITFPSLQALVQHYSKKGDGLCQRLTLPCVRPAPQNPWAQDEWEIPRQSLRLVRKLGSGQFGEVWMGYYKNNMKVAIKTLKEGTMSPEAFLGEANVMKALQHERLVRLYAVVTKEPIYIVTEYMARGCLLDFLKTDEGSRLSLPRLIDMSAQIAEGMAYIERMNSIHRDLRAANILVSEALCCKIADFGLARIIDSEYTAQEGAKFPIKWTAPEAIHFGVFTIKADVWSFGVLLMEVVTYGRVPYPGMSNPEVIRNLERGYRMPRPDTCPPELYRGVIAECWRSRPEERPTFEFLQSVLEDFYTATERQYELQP
The target in a further test is Jak3 (Homo sapiens (Human), UniProt P52333). The experiment in a line: Jak3 Z-LYTE assay (Life Technologies). It is filed as biochemical. The conditions noted are these: Z-LYTE assay performed at Life Technologies.

Bmx, sequence (P51813 whole entry): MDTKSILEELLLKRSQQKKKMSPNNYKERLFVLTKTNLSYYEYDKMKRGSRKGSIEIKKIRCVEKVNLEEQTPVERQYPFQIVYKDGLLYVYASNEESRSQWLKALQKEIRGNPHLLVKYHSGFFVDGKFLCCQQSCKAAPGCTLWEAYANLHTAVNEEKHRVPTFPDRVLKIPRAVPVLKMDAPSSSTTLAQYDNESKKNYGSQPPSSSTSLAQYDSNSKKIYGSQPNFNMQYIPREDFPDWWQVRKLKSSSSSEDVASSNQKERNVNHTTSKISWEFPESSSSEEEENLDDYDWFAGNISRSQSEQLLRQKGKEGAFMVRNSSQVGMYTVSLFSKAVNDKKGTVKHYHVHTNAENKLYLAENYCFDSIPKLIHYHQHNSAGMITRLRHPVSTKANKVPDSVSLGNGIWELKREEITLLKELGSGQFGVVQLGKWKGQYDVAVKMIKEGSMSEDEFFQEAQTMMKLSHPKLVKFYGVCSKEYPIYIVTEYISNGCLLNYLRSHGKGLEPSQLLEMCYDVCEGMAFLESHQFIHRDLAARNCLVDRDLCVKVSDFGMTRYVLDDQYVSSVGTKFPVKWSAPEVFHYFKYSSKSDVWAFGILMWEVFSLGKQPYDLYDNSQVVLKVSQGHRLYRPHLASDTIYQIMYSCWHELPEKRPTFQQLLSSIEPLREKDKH
Txk, sequence (P42681 whole entry): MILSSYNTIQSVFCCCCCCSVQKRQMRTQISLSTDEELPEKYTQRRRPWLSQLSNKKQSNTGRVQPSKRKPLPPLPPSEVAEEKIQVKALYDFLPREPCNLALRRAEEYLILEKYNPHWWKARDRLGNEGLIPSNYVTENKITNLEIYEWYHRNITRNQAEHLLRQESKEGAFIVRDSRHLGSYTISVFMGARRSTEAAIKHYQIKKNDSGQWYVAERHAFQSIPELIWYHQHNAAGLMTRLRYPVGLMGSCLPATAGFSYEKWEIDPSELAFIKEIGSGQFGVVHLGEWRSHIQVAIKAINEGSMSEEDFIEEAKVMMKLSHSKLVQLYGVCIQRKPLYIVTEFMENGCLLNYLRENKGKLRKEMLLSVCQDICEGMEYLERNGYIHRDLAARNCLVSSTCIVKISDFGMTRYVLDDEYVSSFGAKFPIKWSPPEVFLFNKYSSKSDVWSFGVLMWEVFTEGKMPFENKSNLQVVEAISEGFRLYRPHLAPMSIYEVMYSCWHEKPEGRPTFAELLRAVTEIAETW
ITK, sequence (Q08881 whole entry): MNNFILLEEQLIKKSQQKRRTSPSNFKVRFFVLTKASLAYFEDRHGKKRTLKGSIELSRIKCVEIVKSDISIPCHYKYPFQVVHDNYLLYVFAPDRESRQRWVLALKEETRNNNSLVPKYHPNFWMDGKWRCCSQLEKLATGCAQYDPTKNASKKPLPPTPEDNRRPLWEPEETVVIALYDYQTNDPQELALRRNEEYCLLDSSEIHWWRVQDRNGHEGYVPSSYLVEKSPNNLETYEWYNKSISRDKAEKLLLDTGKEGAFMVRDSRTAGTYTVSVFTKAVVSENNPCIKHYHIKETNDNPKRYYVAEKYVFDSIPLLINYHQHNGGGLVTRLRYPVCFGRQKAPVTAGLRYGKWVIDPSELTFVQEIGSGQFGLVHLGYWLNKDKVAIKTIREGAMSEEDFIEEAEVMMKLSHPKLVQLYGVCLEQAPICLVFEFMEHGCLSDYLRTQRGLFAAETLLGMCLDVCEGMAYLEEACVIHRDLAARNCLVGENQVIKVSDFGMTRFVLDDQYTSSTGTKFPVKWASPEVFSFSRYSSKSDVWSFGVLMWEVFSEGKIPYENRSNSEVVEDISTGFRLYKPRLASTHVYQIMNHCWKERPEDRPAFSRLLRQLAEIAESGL

As a reminder, the IC50 is the concentration that gives 50% inhibition. The low end stands for inhibition by little substance, the high end for a need for much substance. In general, EC50 refers to the concentration giving half of the maximal effect. Read a low EC50 as higher potency in that assay. As for `CC#CC(=O)N[C@@H](C)c1nc(-c2ccc(C(=O)Nc3ccccn3)c(OC)c2)c2c(N)nccn12`, the IC50 against BTK is 0.0016 µM; against EGFR WT, greater than 1 µM; against Txk it was 0.002 µM; at ITK, greater than 1 µM; against Bmx, 0.0031 µM. The same compound showed a concentration giving a half-maximal response (EC50) in [1] of 0.0013 µM.

In the case of `CC#CC(=O)N1CCC[C@H]1c1nc(-c2ccc(C(=O)Nc3cc(C(F)(F)F)ccn3)c(OC)c2)c2c(N)nccn12`, the IC50 is 0.0025 µM on BTK; greater than 1 µM against EGFR WT; 0.016 µM at Txk; greater than 1 µM against ITK; greater than 1 µM at ErbB2; 0.099 µM on ErbB4. Besides, the figures for the IC50 against Blk, against Bmx and against Jak3 were 0.489 µM, 0.014 µM and greater than 1 µM, respectively. The compound further returned an EC50 in test [1] of 0.0037 µM.

`CC#CC(=O)N(C)[C@@H](C)c1nc(-c2ccc(C(=O)Nc3cc(C(F)(F)F)ccn3)c(OC)c2)c2c(N)nccn12`: the IC50 at BTK is 0.0035 µM; at EGFR WT, greater than 1 µM; at Txk, 0.013 µM; against ITK, greater than 1 µM; against Bmx, 0.0079 µM. The EC50 in test [1] was found to be 0.0027 µM.
